Assay results published in PubChem BioAssay AID1918946 (Molecular Pharmacology Branch, DTP, NCI, 2023).
“And” between values parts separate entries of the source, which are not always exact repeats. Identical values can stand only once. One block for each compound: values may come before it.

Test system: 885512-296-R-J2-PDC complex spheroid viability
Experiment: Anticancer human tumor 885512-296-R-J2-PDC patient-derived breast carcinoma cell line growth inhibition
Details: for viability, T/C: stronger effect = lower value
Summary of the method: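 Drug combinations with the LSD1 inhibitor iadademstat tested on tumor cells co-cultured as spheroids with endothelial cells and mesenchymal stem cells. Concentrations descended in half-log increments from clinical Cmax or 10 microM.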

[1] = curve of first compound, second compound 0.1 µM
[2] = curve of first compound, second compound 0.316 µM
[3] = curve of first compound, second compound 1 µM
[4] = curve of first compound, second compound 3.16 µM
[5] = curve of first compound, second compound 10 µM
[6] = second compound 0.1 µM, first compound 0.000949 µM
[7] = second compound 0.1 µM, first compound 0.003 µM
[8] = second compound 0.1 µM, first compound 0.00949 µM
[9] = second compound 0.1 µM, first compound 0.03 µM
[10] = second compound 0.1 µM, first compound 0.0949 µM
[11] = second compound 0.1 µM, first compound 0.3 µM
[12] = second compound 0.316 µM, first compound 0.000949 µM
[13] = second compound 0.316 µM, first compound 0.003 µM
[14] = second compound 0.316 µM, first compound 0.00949 µM
[15] = second compound 0.316 µM, first compound 0.03 µM
[16] = second compound 0.316 µM, first compound 0.0949 µM
[17] = second compound 0.316 µM, first compound 0.3 µM
[18] = second compound 1 µM, first compound 0.000949 µM
[19] = second compound 1 µM, first compound 0.003 µM
[20] = second compound 1 µM, first compound 0.00949 µM
[21] = second compound 1 µM, first compound 0.03 µM
[22] = second compound 1 µM, first compound 0.0949 µM
[23] = second compound 1 µM, first compound 0.3 µM
[24] = second compound 3.16 µM, first compound 0.000949 µM
[25] = second compound 3.16 µM, first compound 0.003 µM
[26] = second compound 3.16 µM, first compound 0.00949 µM
[27] = second compound 3.16 µM, first compound 0.03 µM
[28] = second compound 3.16 µM, first compound 0.0949 µM
[29] = second compound 3.16 µM, first compound 0.3 µM
[30] = second compound 10 µM, first compound 0.000949 µM
[31] = second compound 10 µM, first compound 0.003 µM
[32] = second compound 10 µM, first compound 0.00949 µM
[33] = second compound 10 µM, first compound 0.03 µM
[34] = second compound 10 µM, first compound 0.0949 µM
[35] = second compound 10 µM, first compound 0.3 µM
[36] = second compound 0.1 µM, first compound 0.0316 µM
[37] = second compound 0.1 µM, first compound 0.1 µM
[38] = second compound 0.316 µM, first compound 0.0316 µM
[39] = second compound 0.316 µM, first compound 0.1 µM
[40] = second compound 1 µM, first compound 0.0316 µM
[41] = second compound 1 µM, first compound 0.1 µM
[42] = second compound 3.16 µM, first compound 0.0316 µM
[43] = second compound 3.16 µM, first compound 0.1 µM
[44] = second compound 10 µM, first compound 0.0316 µM
[45] = second compound 10 µM, first compound 0.1 µM
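Note: spheroids exposed to agents for 7 days before viability read.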

IC50 (curve of compound): 18.6 nM and 63.9 nM
SMILES: Nc1ncn(C2CC(O)C(CO)O2)c(=O)n1 (configuration not stated)
viability, T/C (compound 0.00316 µM): 74.3% and 93.4%
viability, T/C (compound 0.01 µM): 60.7% and 84.3%
viability, T/C (compound 0.0316 µM): 40.7% and 68.5%
viability, T/C (compound 0.1 µM): 28.2% and 37.6%
viability, T/C (compound 0.316 µM): 23.4% and 23.6%
viability, T/C (compound 1 µM): 11.6% and 15.8%

SMILES: Nc1ccn(C2OC(CO)C(O)C2(F)F)c(=O)n1 (configuration not stated) + NC1CCC(NC2CC2c2ccccc2)CC1
IC50 [1]: < 0.949 nM
IC50 [2]: < 0.949 nM
IC50 [3]: < 0.949 nM
IC50 [4]: < 0.949 nM
IC50 [5]: < 0.949 nM
viability, T/C [6]: 2.54%
viability, T/C [7]: 9.95%
viability, T/C [8]: 3.52%
viability, T/C [9]: 9.59%
viability, T/C [10]: 5.54%
viability, T/C [11]: 10.4%
viability, T/C [12]: 2.51%
viability, T/C [13]: 5.66%
viability, T/C [14]: 5.62%
viability, T/C [15]: 2.98%
viability, T/C [16]: 10%
viability, T/C [17]: 7.9%
viability, T/C [18]: 10.2%
viability, T/C [19]: 2.49%
viability, T/C [20]: 2.65%
viability, T/C [21]: 2.66%
viability, T/C [22]: 5.52%
viability, T/C [23]: 10.6%
viability, T/C [24]: 2.36%
viability, T/C [25]: 6.19%
viability, T/C [26]: 2.7%
viability, T/C [27]: 3.2%
viability, T/C [28]: 2.6%
viability, T/C [29]: 5.18%
viability, T/C [30]: 4.44%
viability, T/C [31]: 4.02%
viability, T/C [32]: 3.03%
viability, T/C [33]: 2.62%
viability, T/C [34]: 4.97%
viability, T/C [35]: 2.63%

SMILES: CC(C)CC(NC(=O)CNC(=O)c1cc(Cl)ccc1Cl)B1OC(=O)CC(CC(=O)O)(C(=O)O)O1 (configuration not stated) + NC1CC1c1ccc(-c2cccc(O)c2)cc1
IC50 [1]: 4.92 nM
IC50 [2]: 5.16 nM
IC50 [3]: 5.08 nM
IC50 [4]: 4.23 nM
IC50 [5]: 3.35 nM
viability, T/C (second compound 0.1 µM, first compound 0.000316 µM): 125%
viability, T/C (second compound 0.1 µM, first compound 0.001 µM): 126%
viability, T/C (second compound 0.1 µM, first compound 0.00316 µM): 75%
viability, T/C (second compound 0.1 µM, first compound 0.01 µM): 10.1%
viability, T/C [36]: 1.77%
viability, T/C [37]: 0.48%
viability, T/C (second compound 0.316 µM, first compound 0.000316 µM): 130%
viability, T/C (second compound 0.316 µM, first compound 0.001 µM): 113%
viability, T/C (second compound 0.316 µM, first compound 0.00316 µM): 79.6%
viability, T/C (second compound 0.316 µM, first compound 0.01 µM): 10.3%
viability, T/C [38]: 2.04%
viability, T/C [39]: 0.45%
viability, T/C (second compound 1 µM, first compound 0.000316 µM): 132%
viability, T/C (second compound 1 µM, first compound 0.001 µM): 116%
viability, T/C (second compound 1 µM, first compound 0.00316 µM): 78.6%
viability, T/C (second compound 1 µM, first compound 0.01 µM): 9.38%
viability, T/C [40]: 1.61%
viability, T/C [41]: 0.42%
viability, T/C (second compound 3.16 µM, first compound 0.000316 µM): 121%
viability, T/C (second compound 3.16 µM, first compound 0.001 µM): 103%
viability, T/C (second compound 3.16 µM, first compound 0.00316 µM): 65.7%
viability, T/C (second compound 3.16 µM, first compound 0.01 µM): 8.61%
viability, T/C [42]: 1.75%
viability, T/C [43]: 0.31%
viability, T/C (second compound 10 µM, first compound 0.000316 µM): 82.8%
viability, T/C (second compound 10 µM, first compound 0.001 µM): 87.5%
viability, T/C (second compound 10 µM, first compound 0.00316 µM): 52%
viability, T/C (second compound 10 µM, first compound 0.01 µM): 5.61%
viability, T/C [44]: 1.05%
viability, T/C [45]: 0.22%

SMILES: Nc1ccn(C2OC(CO)C(O)C2(F)F)c(=O)n1 (configuration not stated) + NC1CC1c1ccc(-c2cccc(O)c2)cc1
IC50 [1]: < 0.949 nM
IC50 [2]: < 0.949 nM
IC50 [3]: < 0.949 nM
IC50 [4]: < 0.949 nM
IC50 [5]: < 0.949 nM
viability, T/C [6]: 13.8%
viability, T/C [7]: 2.18%
viability, T/C [8]: 2%
viability, T/C [9]: 2.39%
viability, T/C [10]: 2.84%
viability, T/C [11]: 2.16%
viability, T/C [12]: 17.7%
viability, T/C [13]: 2.09%
viability, T/C [14]: 1.82%
viability, T/C [15]: 2.16%
viability, T/C [16]: 2.14%
viability, T/C [17]: 2.23%
viability, T/C [18]: 12.1%
viability, T/C [19]: 2.01%
viability, T/C [20]: 2.01%
viability, T/C [21]: 2.18%
viability, T/C [22]: 2.05%
viability, T/C [23]: 2.5%
viability, T/C [24]: 15.3%
viability, T/C [25]: 2.08%
viability, T/C [26]: 2.46%
viability, T/C [27]: 1.83%
viability, T/C [28]: 2.59%
viability, T/C [29]: 2.46%
viability, T/C [30]: 15.8%
viability, T/C [31]: 2.15%
viability, T/C [32]: 2.26%
viability, T/C [33]: 2.65%
viability, T/C [34]: 2.46%
viability, T/C [35]: 3.06%

SMILES: CC1(C)CCC(CN2CCN(c3ccc(C(=O)NS(=O)(=O)c4ccc(NCC5CCOCC5)c([N+](=O)[O-])c4)c(Oc4cnc5[nH]ccc5c4)c3)CC2)=C(c2ccc(Cl)cc2)C1 + NC1CC1c1ccc(-c2cccc(O)c2)cc1
IC50 [1]: 1780 nM
IC50 [2]: 1820 nM
IC50 [3]: 1850 nM
IC50 [4]: 1530 nM
IC50 [5]: 994 nM
viability, T/C [36]: 118%
viability, T/C [37]: 111%
viability, T/C (second compound 0.1 µM, first compound 0.316 µM): 105%
viability, T/C (second compound 0.1 µM, first compound 1 µM): 76.4%
viability, T/C (second compound 0.1 µM, first compound 3.16 µM): 23.9%
viability, T/C (second compound 0.1 µM, first compound 10 µM): 0.12%
viability, T/C [38]: 122%
viability, T/C [39]: 112%
viability, T/C (second compound 0.316 µM, first compound 0.316 µM): 105%
viability, T/C (second compound 0.316 µM, first compound 1 µM): 82.3%
viability, T/C (second compound 0.316 µM, first compound 3.16 µM): 20.8%
viability, T/C (second compound 0.316 µM, first compound 10 µM): 0.11%
viability, T/C [40]: 115%
viability, T/C [41]: 116%
viability, T/C (second compound 1 µM, first compound 0.316 µM): 105%
viability, T/C (second compound 1 µM, first compound 1 µM): 79.9%
viability, T/C (second compound 1 µM, first compound 3.16 µM): 24.4%
viability, T/C (second compound 1 µM, first compound 10 µM): 0.22%
viability, T/C [42]: 103%
viability, T/C [43]: 103%
viability, T/C (second compound 3.16 µM, first compound 0.316 µM): 101%
viability, T/C (second compound 3.16 µM, first compound 1 µM): 68.4%
viability, T/C (second compound 3.16 µM, first compound 3.16 µM): 17.6%
viability, T/C (second compound 3.16 µM, first compound 10 µM): 0.11%
viability, T/C [44]: 83.1%
viability, T/C [45]: 78.8%
viability, T/C (second compound 10 µM, first compound 0.316 µM): 70.5%
viability, T/C (second compound 10 µM, first compound 1 µM): 52.1%
viability, T/C (second compound 10 µM, first compound 3.16 µM): 12.4%
viability, T/C (second compound 10 µM, first compound 10 µM): 0.15%
